Results from patent US9248149B2, “Methods for treating a neoplastic disease in a subject using inorganic selenium-containing compounds” (THE BOARD OF TRUSTEES OF THE LELAND STANFORD JUNIOR …, priority 2003, dated 2016).

What was measured:
[1] = system: LAPC-4 prostate cancer cells; experiment: Apoptosis as sub-G1 fraction by FACS of PI-stained cells; format: cell-based, human; conditions: for percentage of sub-G1 cells (apoptosis): 48 hours
Method: (§1) Cell Cultures and Treatments. LAPC-4 prostate cancer cells (provided by Dr. Charles Sawyers, UCLA) were cultured in phenol red free RPMI 1640 (Life Technologies, Rockville, Md.) supplemented with 10% fetal bovine serum (Gemini Bio-Products, Woodland, Calif.) at 37° C. in a humidified atmosphere with 5% CO2.
Detection of Apoptosis. Flow cytometry analysis (FACS) analysis of propidium iodide (PI)-stained cells was used to quantify the percentage of apoptotic cells as the fraction of cells with a hypodiploid amount of DNA (Sub-G1). Cells were fixed and permeabilized with 100% ice-cold ethanol at 4° C. overnight. The cells were resuspended in 500 μl of buffer (phosphate buffered saline (PBS), 5 mM EDTA) and incubated with 200 μg/ml RNase A for 30 min at room temperature and then 50 μg/ml PI for 10 min at room temperature. The cell cycle distribution was analyzed using Facstar flow cytometry (Becton-Dickinson, San Jose, Calif.). Cleavage of Caspase-3 as a marker of caspase-mediated apoptosis was also detected by immunoblot analysis (see below).

[2] = system: LAPC-4 cells; experiment: Clonogenic survival assay; format: cell-based, human
Method: (§2) Clonogenic Survival Assays. In Examples 1-4 below, LAPC-4 cells were treated with or without selenite for 6 hours prior to receiving 2 Gy of ionizing radiation. In other Examples, LAPC-4 and DU 145 cells were treated with 10 μM selenite for 6 or 12 hours treatment with 2 or 5 Gy of γ-irradiation.
(§3) Following irradiation cells were trypsinized, counted, and seeded in triplicate into 60 mm dishes. At least two dilutions of cells were used for each treatment group. Plated cells were allowed to grow for 14 or 17 days before being stained with 0.25% crystal violet in 75% ethanol. Resulting colonies with greater than 50 cells were scored. The surviving fraction was calculated as the plating efficiency of treated cells divided by the plating efficiency of untreated cells. SF2 is the survival fraction of exponentially growing cells that were irradiated at the clinically relevant dose of 2 Gy. The SF2 enhancement ratio (SF2 ER) is defined here as the SF2 without treatment divided by the SF2 for cells treated with selenite.

[3] = system: LAPC-4 prostate cancer cells; experiment: MTS cell proliferation assay; format: cell-based, human; conditions: 48 hours
Method: as §1
Cell proliferation assay. Cells were seeded in 96-well plates (10,000 cells/well) and treated with selenite for 48 hours. Cell survival was assayed using the CellTiter 96 AQueous One Solution Cell Proliferation Assay (Promega, Madison, Wis.). The MTS tetrazolium solution was added directly to the wells, incubated at 37° C. for 3 hours, and then the absorbance was read at 490 nm with a 96 well plate reader (Vmax Kinetic Microplate Reader, Molecular Devices, Sunnyvale, Calif.).

[4] = system: normal prostate cells (E-PZ-3); experiment: GSH-reductase recycling assay, GSH:GSSG ratio; format: cell-based, human; conditions: 25 μM selenite, 48 hours
Source text: (§4) Primary prostate epithelial cell strains from normal prostate (PZ) and prostate cancer (CA) tissue were provided by Dr. Donna Peehl (Stanford University) using well established methods she has previously described (Peehl, Human prostatic epithelial cells. In: Culture of Epithelial Cells, 2nd edition, Freshney, R. I. and Freshney, M. G. (eds.), Wiley-Liss, Inc., N.Y., 171-194 (2002)). Three matched pairs of normal and cancer cell strains were available for study (E-PZ/CA-1, E-PZ/CA-2, and E-PZ/CA-3). Normal cell strains were obtained from a region of the prostate peripheral zone not involved in cancer. E-CA-1, E-CA-2, and E-CA-3 cell strains were derived from prostate carcinomas. Cells were treated at 50-70% confluence.
(§5) Determination of Intracellular GSH and GSSG Content. […] The 96-well plate assay was prepared by mixing 20 μl of sample or known GSH standard, 20 μl of stock buffer, 200 μl of reaction buffer (1 mM 5,5′-dithiobis(2-nitrobenzoic acid (DTNB) and 0.34 mM nicotinamide adenine dinucleotide phosphate (NADPH) in stock buffer), and 40 μl of GSH reductase (8.5 U/ml). The reaction was recorded kinetically at 30-sec intervals for 6 min at a wavelength of 405 nm GSSG was measured following GSH derivatization with 2-vinylpyridine and triethanolamine. GSSG was measured as described above using known GSSG standards. The concentration of GSH and GSSG was expressed as nmol/mg of protein.

[5] = system: prostate cancer cells (E-CA-3); experiment: GSH-reductase recycling assay, GSH:GSSG ratio; format: cell-based, human; conditions: 25 μM selenite, 48 hours
Source text: as §4, §5

[6] = system: LAPC-4 tumors; experiment: Selenite and radiation combination therapy in mice with LAPC-4 tumors; format: in vivo
[7] = system: DU 145 prostate cancer cells; experiment: GSH-reductase recycling assay, GSH:GSSG ratio; format: cell-based; conditions: 10 μM selenite, basal level 146.4±14.0
Method: DU 145 prostate cancer cells (American Type Culture Collection, Rockville, Md.) were cultured in RPMI 1640 (+phenol red) supplemented with 10% fetal bovine serum. When the cells reached 50% confluence the media was replaced and selenite was added at the noted concentrations.
as §5, with “Content. The determination of intracellular GSH and GSSG content following exposure to selenite was performed using the GSH-reductase recycling assay (Vandeputte et al., Cell Biol Toxicol, 10: 415-421 (1994)). This assay measures the reaction of GSH with 5,5′-dithiobis(2-nitrobenzoic acid) (DTNB).” for “Content.”

[8] = system: LAPC-4 cells; experiment: GSH-reductase recycling assay, intracellular GSH and GSSG; format: cell-based, human; conditions: 10 μM selenite
Method: Determination of Intracellular GSH and GSSG Content. The determination of intracellular GSH and GSSG content following exposure to selenite was performed using the GSH-reductase recycling assay (Vandeputte et al., Cell Biol Toxicol, 10: 415-421 (1994)). This assay measures the reaction of GSH with 5,5′-dithiobis(2-nitrobenzoic acid) (DTNB). Briefly, cells (floating and adherent) were rinsed in cold stock buffer (143 mM sodium phosphate, 6.3 mM EDTA, pH7.4), and lysed by repeated freeze thawing in 130 μl of 10 mM HCl. Following lysis a 10 μl sample was removed and used for protein determination. Proteins were precipitated on ice for 15 min with 30 μl of 6.5% sulfosalicyclic acid and centrifuged for 15 min at 2000×g and 4° C. The supernatants were collected and stored at −80° C. until assayed. The 96-well plate assay was prepared by mixing 20 μl of sample or known GSH standard, 20 μl of stock buffer, 200 μl of reaction buffer (1 mM 5,5′-dithiobis(2-nitrobenzoic acid (DTNB) and 0.34 mM nicotinamide adenine dinucleotide phosphate (NADPH) in stock buffer), and 40 μl of GSH reductase (8.5 U/ml). The reaction was recorded kinetically at 30-sec intervals for 6 min at a wavelength of 405 nm GSSG was measured following GSH derivatization with 2-vinylpyridine and triethanolamine. GSSG was measured as described above using known GSSG standards. The concentration of GSH and GSSG was expressed as nmol/mg of protein.

[9] = system: DU 145 cells; experiment: Clonogenic survival assay; format: cell-based; conditions: for SF2: normalized for killing from selenite alone, radiation alone 0.554; for surviving fraction, selenite alone: assessed at 17 days
Method: as §2, §3

## CCCCS(=N)(=O)CCC(N)C(=O)O (centres unmarked) [BSO, buthionine sulfoximine, reference compound]
[1]; BSO 500 μM for 72 hrs
  induction of apoptosis: did not induce significant apoptosis

## O=[Se](O)O [selenite, Sodium selenite]
[2]; 10 μM selenite 6 hr pre 2 Gy γ-irradiation, normalized for killing from selenite alone, radiation alone 0.244
  SF2: 0.056
[2]; 10 μM selenite 6 hr pre radiation, SF2 without treatment divided by SF2 with selenite
  SF2 ER: 4.36
[2]; 10 μM selenite for 6 hours, no radiation
  surviving fraction, selenite alone: 0.431±0.021
[3]; 10 μM selenite
  Cell proliferation: 53.3 % of control
[3]; 25 μM selenite
  Cell proliferation: 33.4 % of control
[4]
  decrease of GSH:GSSG ratio: 41.1%
[5]
  decrease of GSH:GSSG ratio: 65.9%
[6]; selenite treated mice
  tolerability: very well tolerated
[6]; selenite treated mice compared with local tumor irradiation alone
  weight loss: no significant weight loss
[7]; 6 hours
  GSH:GSSG ratio: 57.5±13.8
[7]; 12 hours
  GSH:GSSG ratio: 5.7±1.8
[8]; 6 hours
  decrease of GSH:GSSG ratio: 88.3%
[8]; 6 hours, untreated 129.4±13.6
  GSH:GSSG ratio: 15.1±2.3
[8]; 48 hours, basal level 52.1±5.6
  total GSH level: 11.8 ± 2.1 nmol/mg
[1]; 10 μM selenite
  percentage of sub-G1 cells (apoptosis): 14.5%
[1]; 25 μM selenite
  percentage of sub-G1 cells (apoptosis): 26.1%
[9]; 10 μM selenite 6 hr pre 2 Gy γ-irradiation
  SF2: 0.343
[9]; 10 μM selenite 6 hr pre radiation
  SF2 ER: 1.62
[9]; 10 μM selenite 12 hr pre 2 Gy γ-irradiation
  SF2: 0.199
[9]; 10 μM selenite 12 hr pre radiation
  SF2 ER: 2.78
[9]; 10 μM selenite for 6 hours
  surviving fraction, selenite alone: 0.941
[9]; 10 μM selenite for 12 hours
  surviving fraction, selenite alone: 0.409
